The record followed here is US20020183290A1, “Adrenergic receptor antagonists selective for both alpha1A-and alpha1D-subtypes and uses therefor” (Recordati S.A., Chemical and Pharmaceutical Company, priority 2001, published 2002).

Like-named read-outs stand apart in the source and are kept apart here.

Test [1] has as its system conscious rats with partial urethral obstruction. Nature of the test: Cystometry in conscious rats obstructed by partial urethra ligature (unstable-bladder contractions). The class given is in vivo, rat. The following applies: for inhibition in vivo at 0.3 mg/kg / inhibition in vivo at 1 mg/kg / inhibition in vivo at 0.1 mg/kg: 2 min; for Amplitude of non-effective micturition contractions, After Treat. / Frequency (number) of non-effective micturition contractions, After Treat.: after treatment; for Activity as inhibitors of unstable-bladder contractions (in words): obstructed conscious rats, summary of Tables 1 and 2. From the text:
A useful animal model system for measuring such pharmacological activity is, without limitation, cystometry in conscious rats with partial bladder-neck obstruction. […] This model is reported in the literature as related to LUTS occurring in patients having obstructive urethral syndromes (Michel, 2000, Drugs of Today. 386 (Supp. B2): 3-6)
In order to obtain a partial obstruction of the urethra, the method previously reported by Malgren (Nalgren et al., 1987, J. Urol. 137:1291-1294; 1988, Neurourol. Urodyn. 6:371), was followed with minor modifications (Guarneri et al., 1991, Pharmacol. Res. 24:263).
Female rats of the Sprague-Dawley strain [Crl:CD(SD)BR, from Charles River Italia, Calco, Como, Italy] weighing 225-275 g were used. The animals were maintained in constant temperature and humidity conditions, on a forced 12-hour light-dark cycle and with food and water ad libitum for at least one week before the experiment.
After being anaesthetized with 3 ml/kg i.p. equitensin (pentobarbital 1.215 g, chloral hydrate 5.312 g, magnesium sulphate 2.657 g, ethanol 12.5 ml, propylene glycol 49.5 ml, distilled water to 125 ml of final volume), the rats were placed in a supine position and the bladder and urethra were exposed via an incision in the shaven abdomens and gently pulling away the muscle portion. The urethra was cannulated with a polyethylene tube with an outside diameter of 1.22 mm, and the urinary bladder was then emptied and, via the cannula introduced through the urethra, filled with physiological saline. A silk (Ethicon 3/0) ligature was placed around the urethra with the cannula inside and the intraurethral cannula was then removed. The abdominal incision was sutured and, immediately after the operative procedure, antibiotic medication (penicillin G 200 000 I.U./kg i.p. and streptomycin 260 mg/kg i.p.) was performed.
Three weeks after the procedure for partially obstructing the urethra, the animals were prepared for cystometry by surgical insertion into the bladder of a catheter, through which the bladder was gradually filled.
The rats, anaesthetised with equitensin 3 ml/kg i.p., were placed in a supine position and, via an incision of about 10 mm in the abdominal wall, the urinary bladder was exposed and gently freed from surrounding tissues.
The urinary bladder was emptied manually and cannulated, via a small incision at the bladder top, with a polyethylene cannula (type PE-50, 0.58 mm I.D. ×0.96 mm O.D.), which was permanently secured to the bladder with silk thread.
The cannula was exposed through a subcutaneous tunnel in the retroscapular area, where it was fastened with a plastic adapter, in order to avoid the risk of removal by the animal. After washing the urinary bladder with physiological saline, the catheter was sealed using a small flame and the abdominal incision was sutured.
To allow evaluation of the effect of a test compound after intravenous administration, the jugular vein was cannulated with a polyethylene cannula (type PE-50, 0.58 mm I.D.×0.96 mm O.D.) filled with heparinised physiological saline. As for the bladder catheter, this cannula, too, was exteriorised, secured and sealed in the retroscapular area.
Two days after the operation, the rats, fasted overnight, were placed in Bollman's cages or in Bollman's cages modified so as to have an opening in the bottom to allow collection of urinated fluid.
After an adaptation period of 20 minutes, the free end of the bladder cannula was connected to a pressure transducer and a special apparatus which allowed infusion into the urinary bladder of physiological saline at 37° C. at a constant rate of 10 ml/hour. Intravesical pressure changes caused by bladder filling were recorded by the pressure transducer which was connected to a recording polygraph.
From the cystometrograms, the frequency and mean amplitude of spontaneous bladder contractions not inducing micturition, termed “unstable-bladder contractions” (UBC), within 2 minutes prior to micturition were evaluated. […]

For test [2], the target named is T1, cloned α1d-adrenoceptor subtype (Homo sapiens, UniProt P25100).
T1 construct: expressed in transfected cells
T1 sequence (P25100 1-572): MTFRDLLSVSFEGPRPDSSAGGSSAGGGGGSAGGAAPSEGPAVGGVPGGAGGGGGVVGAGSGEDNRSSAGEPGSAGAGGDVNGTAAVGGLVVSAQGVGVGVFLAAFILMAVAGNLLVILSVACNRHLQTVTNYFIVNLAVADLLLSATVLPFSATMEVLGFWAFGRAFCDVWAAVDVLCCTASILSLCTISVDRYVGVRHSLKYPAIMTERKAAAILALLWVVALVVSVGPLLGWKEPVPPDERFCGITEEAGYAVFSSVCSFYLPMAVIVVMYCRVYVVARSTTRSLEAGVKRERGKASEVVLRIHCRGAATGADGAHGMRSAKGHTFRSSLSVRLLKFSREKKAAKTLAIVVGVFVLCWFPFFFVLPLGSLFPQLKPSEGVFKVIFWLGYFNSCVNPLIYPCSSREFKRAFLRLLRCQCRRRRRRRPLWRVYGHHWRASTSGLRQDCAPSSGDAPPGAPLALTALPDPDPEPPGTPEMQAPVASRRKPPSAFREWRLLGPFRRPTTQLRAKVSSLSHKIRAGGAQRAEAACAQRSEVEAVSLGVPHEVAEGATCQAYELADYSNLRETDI
Description: Radioligand binding assay ([3H]prazosin), cloned α1d-adrenoceptor subtype. The following applies: read-out: Binding Affinity (Ki nM) α1d. As to the method: (§1) Springer-Verlag, pp. 10-12). […] The results from these assays are used to calculate a measure of receptor selectivity, expressed as the ratio of affinities (Ki) for a given pair of receptors.
(§2) Determination of affinity for cloned subtypes of α1-adrenoceptor subtypes was performed in membranes from cells transfected by electroporation with DNA expressing the genes encoding each α1-adrenoceptor subtype.
(§3) Non-specific binding was determined in the presence of 10 μM phentolamine. Incubation was stopped by addition of ice-cold Tris buffer and rapid filtration through 0.2% polyethyleneimine-pretreated Schleicher & Schuell GF52 filters. […] Data were expressed as mean Ki.

Test [3] addresses T2, cloned α1b-adrenoceptor subtype (Homo sapiens, UniProt P35368).
T2 construct: expressed in transfected cells
T2 sequence (P35368 1-520): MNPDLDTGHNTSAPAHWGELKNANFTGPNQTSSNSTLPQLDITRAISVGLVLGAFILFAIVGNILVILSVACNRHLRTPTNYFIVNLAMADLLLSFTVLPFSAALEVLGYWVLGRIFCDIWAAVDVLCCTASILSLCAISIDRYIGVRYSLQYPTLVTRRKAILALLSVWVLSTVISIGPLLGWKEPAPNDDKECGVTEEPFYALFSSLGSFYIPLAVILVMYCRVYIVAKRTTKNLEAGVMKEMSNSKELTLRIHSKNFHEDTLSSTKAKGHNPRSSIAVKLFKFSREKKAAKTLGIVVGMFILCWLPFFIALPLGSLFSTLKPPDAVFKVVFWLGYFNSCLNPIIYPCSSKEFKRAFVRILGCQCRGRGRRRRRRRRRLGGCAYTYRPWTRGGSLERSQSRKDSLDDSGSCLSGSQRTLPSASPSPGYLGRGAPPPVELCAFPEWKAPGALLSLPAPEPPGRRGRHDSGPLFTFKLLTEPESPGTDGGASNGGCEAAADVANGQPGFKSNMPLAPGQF
Description: Radioligand binding assay ([3H]prazosin), cloned α1b-adrenoceptor subtype. The following applies: read-out: Binding Affinity (Ki nM) α1b. As to the method: as §1, §2, §3

The mark [4] stands for this setting: obstructed rat, 0.3 mg/kg, 2 minutes before micturition, read-out: % inhibition of frequency of non-effective micturition contractions.
Setting [5] is: obstructed rat, 2 minutes before micturition, read-out: % inhibition of frequency of non-effective micturition contractions.
Where [6] appears, read: Rattus norvegicus, read-out: % inhibition of amplitude of non-effective micturition contractions.
Where [7] appears, read: Rattus norvegicus, read-out: % inhibition of frequency of non-effective micturition contractions.
The mark [8] stands for this setting: obstructed rat, 0.3 mg/kg, 2 minutes before micturition, read-out: % inhibition of amplitude of non-effective micturition contractions.
The mark [9] stands for this setting: obstructed rat, 2 minutes before micturition, read-out: % inhibition of amplitude of non-effective micturition contractions.
Where [10] appears, read: obstructed rat, 0.1 mg/kg, 2 minutes before micturition, read-out: % inhibition of amplitude of non-effective micturition contractions.
The mark [11] stands for this setting: obstructed rat, 0.1 mg/kg, 2 minutes before micturition, read-out: % inhibition of frequency of non-effective micturition contractions.

With `COc1ccccc1N1CCN(CCCNC(=O)c2csc3c(=O)cc(C(F)(F)F)oc23)CC1` [Compound A, N-{3-[4-(2-methoxyphenyl)-1-piperazinyl]propyl}-7-keto-5-trifluoromethyl-7H-thieno [3,2-b]pyran-3-carboxamide], the inhibition in vivo at 0.3 mg/kg in test [1] (setting [4]) stood at 44%. Further, in test [1] (setting [5]), the inhibition in vivo at 1 mg/kg is 67%.
For the compound `COc1cc2nc(N3CCN(C(=O)c4ccco4)CC3)nc(N)c2cc1OC` [Prazosin, prazosin], in test [1] (setting [6]), the inhibition in vivo at 0.1 mg/kg is 63% and the inhibition in vivo at 0.3 mg/kg came out at 87%. Also, in test [1] (setting [7]), the inhibition in vivo at 0.1 mg/kg stood at 48% and the inhibition in vivo at 0.3 mg/kg was 74%. For the same compound, in test [1] (0.1 mg/kg), the “Amplitude of non-effective micturition contractions, After Treat.” value was found to be 3.1 ± 0.9 mmHg and the “Frequency (number) of non-effective micturition contractions, After Treat.” value is on record as 2.8 ± 0.8. Also, in test [1] (0.3 mg/kg), the “Amplitude of non-effective micturition contractions, After Treat.” value was determined as 2.1 ± 1.5 mmHg and the “Frequency (number) of non-effective micturition contractions, After Treat.” value was 2.3 ± 1.1. Further, the “Activity as inhibitors of unstable-bladder contractions (in words)” value (“Activity as inhibitors” for short) in test [1] is “marked and dose-dependent reduction”.
What is called Ki is a dissociation constant, usually derived from enzyme kinetics or from competition with a known ligand. As for `O=C1CC2(CCCC2)CC(=O)N1CCN1CCN(c2cc(Cl)ccc2Cl)CC1` [Rec 26D/038], the Ki in test [2] came to 0.13 nM; in test [3] it was 19 nM. For the same compound, the results for the inhibition in vivo at 0.3 mg/kg in test [1] (setting [8]) and in test [1] (setting [4]) were 39% and 38%, respectively. For the same compound, the inhibition in vivo at 1 mg/kg in test [1] (setting [9]) turned out to be 21%; in test [1] (setting [5]) it was 27%. In addition, the “Amplitude of non-effective micturition contractions, After Treat.” value in test [1] (0.3 mg/kg) is recorded as 6.6 ± 1.5 mmHg; in test [1] (1.0 mg/kg), 7.5 ± 1.6 mmHg. Moreover, the results for the “Frequency (number) of non-effective micturition contractions, After Treat.” value in test [1] (0.3 mg/kg) and in test [1] (1.0 mg/kg) were 3.6 ± 0.7 and 4.5 ± 1.2, respectively. For the same compound, the “Activity as inhibitors” value in test [1] was “poorly active”.
Consider `O=C1CC2(CCCC2)CCN1CCN1CCN(c2cc(Cl)ccc2Cl)CC1` [Rec 26D/073], for which the Ki amounted to 0.11 nM in test [2] and 11 nM in test [3]. Also, the inhibition in vivo at 0.3 mg/kg in test [1] (setting [8]) came to 16%; in test [1] (setting [4]), 31%. Further, the inhibition in vivo at 1 mg/kg turned out to be 18% in test [1] (setting [9]) and 25% in test [1] (setting [5]). Besides, the “Amplitude of non-effective micturition contractions, After Treat.” value in test [1] (0.3 mg/kg) amounted to 6.2 ± 1.6 mmHg; in test [1] (1.0 mg/kg), 7.5 ± 1.2 mmHg. Also, the entries for the “Frequency (number) of non-effective micturition contractions, After Treat.” value in test [1] (0.3 mg/kg) and in test [1] (1.0 mg/kg) were 2.8 ± 0.7 and 4.4 ± 0.7, respectively. In test [1], the “Activity as inhibitors” value is listed as “poorly active”.
With `CCOc1ccccc1OCCN[C@H](C)Cc1ccc(OC)c(S(N)(=O)=O)c1` [Tamsulosin, tamsulosin], the Ki in test [2] (cloned receptor, cell membranes, 0.2 nM [3H]prazosin, mean Ki) stood at 0.16 nM; in test [3] it was 0.94 nM. Moreover, the figures for the inhibition in vivo at 0.1 mg/kg in test [1] (setting [10]) and in test [1] (setting [11]) were 52% and 61%, respectively. Also, in test [1] (0.1 mg/kg), the “Amplitude of non-effective micturition contractions, After Treat.” value was 3.7 ± 1.1 mmHg. The “Frequency (number) of non-effective micturition contractions, After Treat.” value in test [1] (0.1 mg/kg) is recorded as 1.9 ± 0.7. Also, the “Activity as inhibitors” value in test [1] is reported as “very potent”.
`COc1cc2nc(N3CCN(C(=O)C4CCCO4)CC3)nc(N)c2cc1OC` (centres unmarked) [Terazosin, terazosin]: the inhibition in vivo at 0.1 mg/kg in test [1] (setting [10]) is 31%; in test [1] (setting [11]) it was 30%. The results for the inhibition in vivo at 0.3 mg/kg in test [1] (setting [8]) and in test [1] (setting [4]) were 64% and 65%, respectively. The inhibition in vivo at 1 mg/kg in test [1] (setting [9]) was 86%; in test [1] (setting [5]) it was 93%. For the same compound, the “Amplitude of non-effective micturition contractions, After Treat.” value is 6.6 ± 0.7 mmHg in test [1] (0.1 mg/kg), 3.7 ± 1.1 mmHg in test [1] (0.3 mg/kg) and 0.8 ± 0.8 mmHg in test [1] (1.0 mg/kg). In addition, the “Frequency (number) of non-effective micturition contractions, After Treat.” value in test [1] (0.1 mg/kg) is 4.0 ± 0.3; in test [1] (0.3 mg/kg), 1.9 ± 0.5; in test [1] (1.0 mg/kg), 0.3 ± 0.3. Also, in test [1], the “Activity as inhibitors” value was “marked and dose-dependent reduction”.
